Measured values from ChEMBL document CHEMBL5120875, “Discovery of diarylheptanoids that activate α7 nAchR-JAK2-STAT3 signaling in macrophages with anti-inflammatory activity in vitro and in vivo” (Bioorg Med Chem, 2022).
Activity calls are given as the source filed them. The calls are words filed in the database; no cut-off is given here.

Key:
[1] = test system: RAW264.7; assay: Inhibition of LPS-induced NO production in mouse RAW264.7 cells at 5 uM preincubated with compound for 2 hrs followed by LPS stimulation for 24 hrs by Griess reagent based assay relative to control; assay type: functional; conditions: time 26 hrs
[2] = test system: RAW264.7; assay: Inhibition of LPS-induced NO production in mouse RAW264.7 cells preincubated with compound for 2 hrs followed by LPS stimulation for 24 hrs by Griess reagent based assay; assay type: functional, cell-based
[3] = test system: RAW264.7; assay: Cytotoxicity against mouse RAW264.7 cells assessed as effect on cell viability at 5 uM incubated for 24 hrs by alamar blue reagent based fluorescence assay; assay type: toxicity; conditions: raw264.7, 24 h
[4] = test system: RAW264.7; assay: Antiinflammatory activity in LPS-induced mouse RAW264.7 cells assessed as enhancement of JAK2 phosphorylation at 20 uM pretreated with compound for 2 hrs followed by LPS-stimulation and measured after 30 mins by Western blot analysis; assay type: functional, cell-based; conditions: time 2.5 hrs
[5] = test system: RAW264.7; assay: Antiinflammatory activity in LPS-induced mouse RAW264.7 cells assessed as enhancement of JAK2 phosphorylation at […] pretreated with compound for 2 hrs followed by LPS-stimulation and measured after 30 mins by Western blot analysis; assay type: functional, cell-based; conditions: time 2.5 hrs
[6] = test system: RAW264.7; assay: Antiinflammatory activity in LPS-induced mouse RAW264.7 cells assessed as enhancement of STAT3 phosphorylation at 20 uM pretreated with compound for 2 hrs followed by LPS-stimulation and measured after 30 mins by Western blot analysis; assay type: functional, cell-based; conditions: time 2.5 hrs
[7] = test system: RAW264.7; assay: Antiinflammatory activity in LPS-induced mouse RAW264.7 cells assessed as enhancement of STAT3 phosphorylation at […] pretreated with compound for 2 hrs followed by LPS-stimulation and measured after 30 mins by Western blot analysis; assay type: functional, cell-based; conditions: time 2.5 hrs

| SMILES | inhibition at 5 µM [1] [%] | Activity [3] | further results |
| --- | --- | --- | --- |
| COc1cccc(/C=C/C(=O)/C=C/C=C/c2cccc(O)c2)c1 | 84.3 | Non-Toxic | IC50 [2]: 810 nM |
| COc1ccc(/C=C/C(=O)/C=C/C=C/c2cccc(O)c2)cc1 | 85.8 | Non-Toxic | IC50 [2]: 1230 nM |
| O=C(CCCCc1ccccc1)CCc1ccc(O)cc1 | 68.3 | Non-Toxic |  |
| Oc1ccc(CCCC[C@H](O)CCc2ccccc2)cc1 | 23.9 | Non-Toxic |  |
| COc1ccc(OC)c(/C=C/C=C/C(=O)/C=C/c2ccc(OC)c(O)c2)c1 | 101 | Non-Toxic | IC50 [2]: 610 nM |
| COc1cc(CCC(O)/C=C/C=C/c2ccccc2)ccc1O (stereo not drawn) | 35.3 | Non-Toxic |  |
| O[C@@H](/C=C/C=C/c1ccccc1)CCc1ccccc1 | 4.61 | Non-Toxic |  |
| C(=C\C=C\c1ccccc1)/C=C/Cc1ccccc1 | 124 | Non-Toxic | IC50 [2]: 840 nM |
| COc1ccc(OC)c(CCCCC(=O)CCc2ccc(OC)c(O)c2)c1 | 39.4 | Non-Toxic |  |
| COc1ccc(CCC(=O)CCCCc2cccc(O)c2)cc1 | 21.4 | Non-Toxic |  |
| CC(=O)OCC[N+](C)(C)C |  |  | Activity [4]: Active; Activity [5]: Active; Activity [6]: Active; Activity [7]: Active |
| COc1cc(CC[C@@H](O)CC/C=C/c2ccccc2)ccc1O | 47.9 | Non-Toxic |  |
| Oc1ccc(CCC(O)/C=C/C=C/c2ccccc2)cc1O (single isomer, unassigned) | 12.3 | Non-Toxic |  |
| O[C@@H](CCCCc1ccccc1)CCc1ccccc1 | 40.1 | Non-Toxic |  |
| O/N=C(/CC/C=C/c1ccccc1)CCc1ccccc1 | 39.4 | Non-Toxic |  |
| Oc1ccc(CC[C@@H](O)CC/C=C/c2ccccc2)cc1 | 20.4 | Non-Toxic |  |
| O=C(CCc1ccccc1)C[C@@H](O)/C=C/c1ccccc1 | 11 | Non-Toxic |  |
| COc1ccc(CCCCC(O)CCc2ccc(OC)c(O)c2)c(OC)c1 (stereo not drawn) | -2.9 | Non-Toxic |  |
| COc1ccc(CCCCC(O)CCc2cccc(O)c2)c(OC)c1 (stereo not drawn) | -14.5 | Non-Toxic |  |
| O=C(CCCCc1ccccc1)CCc1ccccc1 | 38.9 | Non-Toxic |  |
| COc1ccc(CCC(=O)CC/C=C/c2ccccc2)cc1 | -17.2 | Non-Toxic |  |
| CC(=O)Oc1ccc(CC[C@@H](O)CC/C=C/c2ccccc2)cc1OC(C)=O | 121 | Non-Toxic | IC50 [2]: 1610 nM |
| O=C(/C=C/C=C/c1ccccc1)CCc1ccc(O)cc1 | 60.4 | Non-Toxic |  |
| Oc1ccc(CC[C@@H](O)CC/C=C/c2ccccc2)cc1O | 34.7 | Non-Toxic |  |
| Oc1ccc(CCC(O)CC(O)CCc2ccccc2)cc1 (stereo not drawn) | 20.5 | Non-Toxic |  |

| SMILES | inhibition at 5 µM [1] [%] | Activity [3] | further results |
| --- | --- | --- | --- |
| O=C(/C=C/C=C/c1ccccc1)CCc1ccccc1 | 52.8 | Non-Toxic |  |
| COc1ccc(OC)c(CCCCC(O)CCc2ccc(OC)c(O)c2)c1 (stereo not drawn) | 36.2 | Non-Toxic |  |
| O=C(CC/C=C/c1ccccc1)CCc1ccccc1 | -8.52 | Non-Toxic |  |
| COC(/C=C/C=C/c1ccccc1)CCc1ccc(O)cc1 (stereo not drawn) | 66.3 | Non-Toxic |  |
| O=C(CC/C=C/c1ccccc1)CCc1ccc(O)cc1 | 46.1 | Non-Toxic |  |
| O=C(CCc1ccccc1)C[C@@H](O)CCc1ccccc1 | 14.7 | Non-Toxic |  |
| CC(=O)Oc1ccc(CCC(=O)CCCCc2ccccc2)cc1 | 45.2 | Non-Toxic |  |
| COc1cc(/C=C/C(=O)CC(=O)/C=C/c2ccc(O)c(OC)c2)ccc1O [CURCUMIN] | 74 | Non-Toxic | IC50 [2]: 1890 nM |
| COc1ccc(CCCCC(=O)CCc2cccc(O)c2)c(OC)c1 | 2.74 | Non-Toxic |  |
| COc1cc(CCC(=O)CC/C=C/c2ccccc2)ccc1O | 52.2 | Non-Toxic |  |
| CC(=O)Oc1ccc(CCC(=O)CC/C=C/c2ccccc2)cc1 | 22.2 | Non-Toxic |  |
| CC(=O)Oc1ccc(CCC(=O)CCCCc2ccccc2)cc1OC(C)=O | 128 | Non-Toxic | IC50 [2]: 370 nM |
| O[C@@H](CC/C=C/c1ccccc1)CCc1ccc(OCc2ccccc2)cc1 | -15.7 | Non-Toxic |  |
| CC(=O)Oc1ccc(CC[C@@H](O)CCCCc2ccccc2)cc1OC(C)=O | 99.2 | Non-Toxic | IC50 [2]: 330 nM |
| O[C@@H](CC/C=C/c1ccccc1)CCc1ccccc1 | -18.3 | Non-Toxic |  |
| COc1ccc(CCC(=O)CCCCc2cccc(O)c2)cc1O | 8.39 | Non-Toxic |  |
| COc1ccc(CCCCC(=O)CCc2ccc(OC)c(O)c2)c(OC)c1 | 16.6 | Non-Toxic |  |
| OC(CCc1ccccc1)CC(O)CCc1ccccc1 (stereo not drawn) | 23.5 | Non-Toxic |  |
| COc1ccc(/C=C/C=C/C(=O)/C=C/c2cccc(O)c2)c(OC)c1 | 82.3 | Non-Toxic | IC50 [2]: 970 nM |
| COc1ccc(CCC(/C=C/C=C/c2ccccc2)OC)cc1O (stereo not drawn) | 71.1 | Non-Toxic |  |
| COc1cccc(/C=C/C=C/C(=O)/C=C/c2cccc(O)c2)c1 | 92.3 | Non-Toxic | IC50 [2]: 410 nM |
| Oc1ccc(CC[C@@H](O)CCCCc2ccccc2)cc1O | 54 | Non-Toxic |  |
| COc1ccc(/C=C2\CCCN=C2c2cccnc2)c(OC)c1 |  |  | Activity [4]: Active; Activity [5]: Active; Activity [6]: Active; Activity [7]: Active |
| O=C(/C=C/C=C/c1cccc(O)c1)/C=C/c1cccc(O)c1 | 95.9 | Non-Toxic | IC50 [2]: 580 nM |
